Experiments:
Type in all cases: biochemical
[1] = biological target: T1, γ-secretase (N100FLAG Notch-based substrate) (Homo sapiens, UniProt P49768); experiment: In vitro γ-secretase assay, N-100 Flag (Notch-based substrate) cleavage; conditions: effect on N-100 Flag cleavage; compounds tested in vitro at 100 μM
T1 construct: made in house; host or cells: S-1 CHO cell line (Chinese hamster ovary)
Description: (§1) Purification of γ-Secretase and in Vitro γ-Secretase Assays—The following procedures can be used to isolate γ-secretase and measure its enzymatic activity. The multistep procedure for the high grade purification of human γ-secretase from the S-1 cells is performed as described previously (Fraering, P. C., et al. (2004) Biochemistry 43, 9774-9789). In vitro γ-secretase assays using the recombinant APP-based substrate C100FLAG and the recombinant Notch-based substrate N100FLAG are performed as reported previously (Esler, W. P., Kimberly, W. T., Ostaszewski, B. L., Ye, W., Diehl, T. S., Selkoe, D. J., and Wolfe, M. S. (2002) Proc. Natl. Acad. Sci. U.S.A. 99, 2720-2725, Kimberly, W. T., et al. (2003) Biochemistry 42, 137-144). Basically, the proteolytic reaction mixtures contain C100FLAG and N100FLAG substrate at a concentration of 1 μm, purified γ-secretase solubilized in 0.2% CHAPSO/HEPES, pH 7.5, at 10-fold dilution from stock (stock=the M2 anti-FLAG-eluted fraction in the purification protocol from S-1 cells (Fraering, P. C., et al. (2004) Biochemistry 43, 9774-9789)), 0.025% phosphatidylethanolamine (PE), and 0.10% phosphatidylcholine (PC). All the reactions are stopped by adding 0.5% SDS, and the samples are assayed for Aβ40 and Aβ42 by ELISA as described (Xia, W., Zhang, J., Ostaszewski, B. L., Kimberly, W. T., Seubert, P., Koo, E. H., Shen, J., and Selkoe, D. J. (1998) Biochemistry 37, 16465-16471). The capture antibodies are 2G3 (to Aβ residues 33-40) for the Aβ40 species and 21F12 (to Aβ residues 33-42) for the Aβ42 species.
(§2) Western Blotting and Antibodies—The following assay can be used to determine the extent to which the compounds of interest modulate the cleavage of APP and the Notch receptor. For Western analysis of PS1-NTF, PS1-CTF, Aph1α2-HA, FLAG-Pen-2, and NCT-GST, the samples are run on 4-20% Tris-glycine polyacrylamide gels, transferred to polyvinylidene difluoride, and can be probed with Ab14 (for PS1-NTF, 1:2000; a gift of S. Gandy), 13A11 (for PS1-CTF, 5 μg/ml; a gift of Elan Pharmaceuticals), 3F10 (for Aph1α2-HA, 50 ng/ml; Roche Applied Science), anti-FLAG M2 (for FLAG-Pen-2, 1:1000; Sigma), or αGST antibodies (for NCT-GST, 1:3000; Sigma). Samples from the γ-secretase activity assays (above) are run on 4-20% Tris-glycine gels and can be transferred to polyvinylidene difluoride membranes to detect AICD-FLAG with anti-FLAG M2 antibodies (1:1000, Sigma) and NICD-FLAG with Notch Ab1744 antibody (1:1000, Cell Signaling Technology), which is selective for the N terminus of NICD; the same samples are transferred to nitrocellulose membranes to detect Aβ with the anti-Aβ 6E10 antibody. Levels of AICD-FLAG and NICD-FLAG are estimated by densitometry using AlphaEase/Spot Denso (Alpha Innotech Corp.).
(§3) Naphthyl Amine Alcohol Analogs and Assay Data—Compounds listed in Table 2 may be assayed as described herein (e.g., in Examples 3 and 4) and the specificity may be evaluated by comparing the relative inhibitions of C-100 Flag and N-100 Flag cleavage. The potency of the inhibitor may be evaluated with an Aβ1-40 ELISA assay (e.g., using an Aβ40 ELISA kit available from Invitrogen, Carlsbad, Calif.). […] The following table indicates the properties of certain compounds of the invention that were assayed as described herein. (INH=Inhibits)

[2] = biological target: T2, γ-secretase (C100FLAG APP-based substrate) (Homo sapiens, UniProt P49768); experiment: In vitro γ-secretase assay, C-100 Flag (APP-based substrate) cleavage; conditions: effect on C-100 Flag cleavage; compounds tested in vitro at 100 μM
T2 construct: made in house; host or cells: S-1 CHO cell line (Chinese hamster ovary)
Description: as §1, §2, §3

[3] = biological target: T3, γ-secretase (Aβ1-40 production) (Homo sapiens, UniProt P49768); experiment: γ-Secretase assay, Aβ1-40 ELISA; conditions: 100 μM
T3 construct: made in house; host or cells: S-1 CHO cell line (Chinese hamster ovary)
Description: as §1, §3

## CC(C)N(CCC(O)c1ccc2ccccc2c1)Cc1ccccc1 (centres unmarked) [Example 1, 3-(benzyl(isopropyl)amino)-1-(naphthalen-2-yl)propan-1-ol]
[1]
  γ-Secretase Assay N-100 Flag: Enhances (Enh)
[2]
  γ-Secretase Assay C-100 Flag: Inhibits (Inh)
[3]
  inhibition at 100 µM: 16%

## OC(CCN1CCN(c2cccc(C(F)(F)F)c2)CC1)c1ccc2ccccc2c1 (centres unmarked) [Example 13]
[1]
  γ-Secretase Assay N-100 Flag: Enh
[2]
  γ-Secretase Assay C-100 Flag: Enh
[3]
  inhibition at 100 µM: 38%

## OC(CCN1CCN(c2ccc(F)cc2)CC1)c1ccc2ccccc2c1 (centres unmarked) [Example 14, 3-(4-(4-fluorophenyl)piperazin-1-yl)-1-(naphthalen-2-yl)propan-1-ol]
[1]
  γ-Secretase Assay N-100 Flag: Enh
[2]
  γ-Secretase Assay C-100 Flag: Inh
[3]
  inhibition at 100 µM: 61%

## CC(C)N(CCC(O)c1ccc2ccccc2c1)Cc1ccc(Cl)c(Cl)c1 (centres unmarked) [Example 17]
[1]
  γ-Secretase Assay N-100 Flag: Enh
[2]
  γ-Secretase Assay C-100 Flag: Inh
[3]
  inhibition at 100 µM: 60%

## CC(C)N(CCC(O)c1ccc2ccccc2c1)Cc1ccc(F)c(F)c1 (centres unmarked) [Example 18]
[1]
  γ-Secretase Assay N-100 Flag: Enh
[2]
  γ-Secretase Assay C-100 Flag: Inh
[3]
  inhibition at 100 µM: 64%

## CC(C)N(CCC(O)c1cccc2ccccc12)Cc1ccccc1 (centres unmarked) [Example 19]
[1]
  γ-Secretase Assay N-100 Flag: Enh.
[2]
  γ-Secretase Assay C-100 Flag: Inh
[3]
  inhibition at 100 µM: 46%

## CC(C)N(CCC(O)c1ccc2ccccc2c1)c1ccccc1 (centres unmarked) [Example 20]
[1]
  γ-Secretase Assay N-100 Flag: Inh
[2]
  γ-Secretase Assay C-100 Flag: Inh
[3]
  inhibition at 100 µM: 68%

## CC(C)N(CCC(O)c1ccc2ccccc2c1)Cc1cc(F)cc(F)c1 (centres unmarked) [Example 31]
[1]
  γ-Secretase Assay N-100 Flag: Inh
[2]
  γ-Secretase Assay C-100 Flag: Inh
[3]
  inhibition at 100 µM: 54%

## CCOc1ccc(NCCC(O)c2ccc3ccccc3c2)cc1 (centres unmarked) [Example 32]
[1]
  γ-Secretase Assay N-100 Flag: Inh
[2]
  γ-Secretase Assay C-100 Flag: Inh
[3]
  inhibition at 100 µM: 40%

## OC(CCNc1ccc(F)c(Cl)c1)c1ccc2ccccc2c1 (centres unmarked) [Example 33]
[1]
  γ-Secretase Assay N-100 Flag: Inh
[2]
  γ-Secretase Assay C-100 Flag: Inh
[3]
  inhibition at 100 µM: 40%

## CN(CCC(O)c1ccc2ccccc2c1)Cc1ccccc1 (centres unmarked) [Example 44]
[1]
  γ-Secretase Assay N-100 Flag: Enh
[3]
  γ-Secretase Assay ELISA % Inhibition [100 μM] Aβ1-40: 56%

## Cc1ccc(C(O)CCN(Cc2ccccc2)C(C)C)cc1F (centres unmarked) [Example 54]
[1]
  γ-Secretase Assay N-100 Flag: Inh
[3]
  inhibition at 100 µM: 29%

## CC(C)N(CCC(O)c1cc(F)cc(Cl)c1)Cc1ccccc1 (centres unmarked) [Example 55]
[1]
  γ-Secretase Assay N-100 Flag: Inh
[3]
  inhibition at 100 µM: 30%

## Cc1cccc(C)c1C(O)CCN(Cc1ccccc1)C(C)C (centres unmarked) [Example 56]
[1]
  γ-Secretase Assay N-100 Flag: Inh
[3]
  inhibition at 100 µM: 20%

## CC(C)N(CCC(O)c1cc(C(F)(F)F)cc(C(F)(F)F)c1)Cc1ccccc1 (centres unmarked) [Example 57]
[1]
  γ-Secretase Assay N-100 Flag: Inh
[3]
  inhibition at 100 µM: 47%

## CC(C)N(CC[C@@H](O)c1ccc2ccccc2c1)Cc1ccccc1 [Example 75]
[1]
  γ-Secretase Assay N-100 Flag: Inh
[3]
  inhibition at 100 µM: 0%

## OC(CN1CCN(c2ccccc2)CC1)c1ccc2ccccc2c1 (centres unmarked) [Example 81]
[1]
  γ-Secretase Assay N-100 Flag: Enh
[3]
  inhibition at 100 µM: 0%

## CC(C)N(Cc1ccccc1)CC(O)c1ccc2ccccc2c1 (centres unmarked) [Example 82]
[1]
  γ-Secretase Assay N-100 Flag: Inh
[2]
  γ-Secretase Assay C-100 Flag: Inh
[3]
  inhibition at 100 µM: 0%

## O=[N+]([O-])c1cc(NCCC(O)c2ccc3ccccc3c2)ccc1Cl (centres unmarked) [Example 83]
[1]
  γ-Secretase Assay N-100 Flag: Inh
[2]
  γ-Secretase Assay C-100 Flag: Inh
[3]
  inhibition at 100 µM: 46%

From patent US20100286164A1, “SUBSTITUTED ARYL ALKYLAMINO-OXY-ANALOGS AND USES THEREOF” (The Brigham and Women's Hospital, Inc, priority 2007, published 2010)
